# In patent US6335331B1, “Pseudopolymorphic forms of 2-[2-[4-[Bis (4-fluorophenyl) methyl]-1-piperazinyl]ethoxy]acetic acid dihydrochloride” (UCB, S.A., priority 1997, dated 2002):
# Experiments:
# [1] = Intrinsic dissolution rate (static disc method, USP XXII apparatus No 2); assay type: physicochemical; details: 70:30 (w/w) with AVICEL PH102, dihydrochloride
# Description: Drug bioavailability studies have shown that an intrinsic dissolution rate (IDR) lower than 0.1 mg/cm^2/min can often be predictive of a dissolution rate-limited absorption in humans. Thus, IDR is a predictive parameter of bioavailability. This parameter depends upon various physicochemical properties including, the chemical form (salt, solvate), the crystal form, the solubility and wettability. The determination of IDR was performed in the following way. The Form to be tested was homogeneously ground and mixed with microcrystalline cellulose AVICEL PH102 (dry binder which improves tableting properties). The substance:excipient mix ratio was 70:30 (w/w). Aliquots (500 mg) were compressed into pellets by compression until a final applied load of 10 tons in order to obtain a constant and known surface area of zero porosity. The dissolution experiments were carried out at 37° C. using 500 ml of aqueous media at three different pH values intended to cover the expected range of human gastrointestinal pH values, i.e. 1.2, 4.0 and 7.5. Uniform and reproducible haemodynamic conditions were obtained by carrying out the test with USP XXII apparatus N°2 (United States Pharmacopoeia, 1990) in which a paddle is used as stirring element (50 rpm) and the pellet assembly is placed at the bottom of the vessel (static disc method). Statistically assessed (p<0.05) linear portions of all replicate dissolution curves were selected for subsequent IDR calculation.
# [2] = Storage stability of 1:1 (w/w) binary mixtures with D-sorbitol: sorbitol-efletirizine monoester by HPLC-UV; assay type: physicochemical; details: for sorbitol-efletirizine monoester, Relative % area: 1:1 (w/w) with D-sorbitol; for monoester formation (in words): pellet with D-sorbitol
# Description: This is illustrated in the results of the following study, aimed at examining the stabilities of the two pseudopolymorphic forms in the presence of D-sorbitol during storage under stress temperature conditions, that is, in sealed vials at 40 or 60° C. In this study, HPLC analysis of several samples was performed: Form A, Form B, D-sorbitol and 1:1 (w/w) mixtures of Form A or Form B with D-sorbitol. Each sample was homogeneously ground and mixed. Aliquots (500 mg) were compressed into 13 mm diameter pellets at an applied load of 1 ton which a usual compression strength for pharmaceutical tablets. Each compact pellet was immediately ground into a fine powder, and an aliquot was stored in a tightly sealed glass vial at 40 or 60° C. Samples were analysed by HPLC after 0, 4, 16 and 24 weeks. p In a first series of analyses, HPLC/UV spectra were collected using a Kontron HPLC system type 300 fitted with a UV detector. The column used was Supercosil RP—ABZ 250×4.6 mm I.D. 5 μm particle size, and the mobile phase used consisted of an acetonitrile/water 25:75 (v/v) mixture, the water containing 770 mg/l ammonium acetate. Samples to be analysed were dissolved in acetonitrile/water 25:75 (v/v) at a concentration of 2 mg/ml, and 10 μl of these solutions were injected in the HPLC system. Upon comparing the HPLC spectra obtained for the individual components and for the binary mixtures, new peaks detected were considered indicative of an interaction with D-sorbitol. When present, these new peaks were quantified and further identified by HPLC/MS analysis, using a VG Quattro spectrometer coupled onto a Kontron HPLC system. In HPLC/MS, the new peaks observed for the binary mixtures were identified as a sorbitol-efletirizine monoester and dehydrated forms of a sorbitol-efletirizine monoester. The latter appeared after longer storage periods than the former. […] Relative quantification of monoester was performed by HPLC-UV analysis.
# [3] = Storage stability of the pure forms under stress temperature, HPLC/UV; assay type: physicochemical; details: pure form, 40° or 60° C., 4, 16 or 24 weeks
# Description: This is illustrated in the results of the following study, aimed at examining the stabilities of the two pseudopolymorphic forms in the presence of D-sorbitol during storage under stress temperature conditions, that is, in sealed vials at 40 or 60° C. In this study, HPLC analysis of several samples was performed: Form A, Form B, D-sorbitol and 1:1 (w/w) mixtures of Form A or Form B with D-sorbitol. Each sample was homogeneously ground and mixed. Aliquots (500 mg) were compressed into 13 mm diameter pellets at an applied load of 1 ton which a usual compression strength for pharmaceutical tablets. Each compact pellet was immediately ground into a fine powder, and an aliquot was stored in a tightly sealed glass vial at 40 or 60° C. Samples were analysed by HPLC after 0, 4, 16 and 24 weeks. p In a first series of analyses, HPLC/UV spectra were collected using a Kontron HPLC system type 300 fitted with a UV detector. The column used was Supercosil RP—ABZ 250×4.6 mm I.D. 5 μm particle size, and the mobile phase used consisted of an acetonitrile/water 25:75 (v/v) mixture, the water containing 770 mg/l ammonium acetate. Samples to be analysed were dissolved in acetonitrile/water 25:75 (v/v) at a concentration of 2 mg/ml, and 10 μl of these solutions were injected in the HPLC system. […] Pure D-sorbitol was not detected in HPLC/UV. […]
# [4] = Clinical pharmacology study in urticaria, atopic dermatitis and prurit; assay type: in vivo; details: clinical pharmacology study (to be published)
# [5] = target: histamine H1-receptor (Homo sapiens, UniProt P35367); details: in vitro; cited from earlier work
# [6] = 40° C., 4 weeks, dihydrochloride
# [7] = 40° C., 16 weeks, dihydrochloride
# [8] = 40° C., 24 weeks, dihydrochloride
# [9] = 60° C., 0 weeks, dihydrochloride
# [10] = 60° C., 4 weeks, dihydrochloride
# [11] = 60° C., 16 weeks, dihydrochloride
# [12] = 60° C., 24 weeks, dihydrochloride
# [13] = storage at 60° C., dihydrochloride
# histamine H1-receptor, sequence (P35367 whole entry, species assumed): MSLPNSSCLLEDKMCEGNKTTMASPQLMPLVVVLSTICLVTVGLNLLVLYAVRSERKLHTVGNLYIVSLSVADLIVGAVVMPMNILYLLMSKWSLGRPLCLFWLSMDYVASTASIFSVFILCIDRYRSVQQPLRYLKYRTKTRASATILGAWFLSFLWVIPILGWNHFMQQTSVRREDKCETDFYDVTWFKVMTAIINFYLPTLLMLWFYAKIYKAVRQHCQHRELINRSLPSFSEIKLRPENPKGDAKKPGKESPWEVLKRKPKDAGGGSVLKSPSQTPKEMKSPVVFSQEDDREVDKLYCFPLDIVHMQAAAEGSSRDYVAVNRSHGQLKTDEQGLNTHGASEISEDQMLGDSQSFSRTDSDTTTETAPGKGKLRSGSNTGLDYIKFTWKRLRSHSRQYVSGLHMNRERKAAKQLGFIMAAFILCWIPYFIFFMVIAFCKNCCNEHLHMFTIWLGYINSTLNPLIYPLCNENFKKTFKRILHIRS
"Intrinsic dissolution rate ([1]; pH 1.2, 37° C.) [mg/cm^2/min]","Intrinsic dissolution rate ([1]; pH 4.0, 37° C.) [mg/cm^2/min]","Intrinsic dissolution rate ([1]; pH 7.5, 37° C.) [mg/cm^2/min]","sorbitol-efletirizine monoester, Relative % area ([2]; 40° C., 0 weeks) [Relative % area]","sorbitol-efletirizine monoester, Relative % area [2, 6] [Relative % area]","sorbitol-efletirizine monoester, Relative % area [2, 7] [Relative % area]","sorbitol-efletirizine monoester, Relative % area [2, 8] [Relative % area]","sorbitol-efletirizine monoester, Relative % area [2, 9] [Relative % area]","sorbitol-efletirizine monoester, Relative % area [2, 10] [Relative % area]","sorbitol-efletirizine monoester, Relative % area [2, 11] [Relative % area]","sorbitol-efletirizine monoester, Relative % area [2, 12] [Relative % area]",monoester formation (in words) ([2]; storage at 40° C.),"monoester formation (in words) [2, 13]",SMILES,modifications of the HPLC/UV spectrograms after storage [3],"results in the treatment of urticaria, atopic dermatitis and prurit [4]",affinity for H1-receptors [5],selectivity for H1-receptors [5]
5.04 ± 0.34,5.43 ± 0.32,4.52 ± 0.34,0,0.04,0.07,0.13,0.03,0.29,0.45,0.46,quite low,quite low,"Cl.Cl.O=C(O)COCCN1CCN(C(c2ccc(F)cc2)c2ccc(F)cc2)CC1 [Form A, 2-[2-[4-[bis(4-fluorophenyl)methyl]-1-piperazinyl]ethoxy]acetic acid dihydrochloride]",no modifications of the spectrograms were observed,–,–,–
4.05 ± 0.64,3.58 ± 0.50,3.31 ± 0.04,0,0.13,0.16,0.23,0.04,0.87,2.69,2.95,quite low,very significant,"Cl.Cl.O=C(O)COCCN1CCN(C(c2ccc(F)cc2)c2ccc(F)cc2)CC1 [Form B, 2-[2-[4-[bis(4-fluorophenyl)methyl]-1-piperazinyl]ethoxy]acetic acid dihydrochloride]",no modifications of the spectrograms were observed,–,–,–
–,–,–,–,–,–,–,–,–,–,–,–,–,"O=C(O)COCCN1CCN(C(c2ccc(F)cc2)c2ccc(F)cc2)CC1 [efletirizine, 2-[2-[4-[Bis(4-fluorophenyl)methyl]-1-piperazinyl]ethoxy]acetic acid]",–,unexpectedly good results,high affinity,selectivity
